# Tests used:
# [1] = test system: human hair follicle dermal papilla cells; experiment: WST-1 cell viability assay; assay type: cell-based; details: 48 hours, various concentrations, vs non-treated group
# Experimental: With reference to the documents [Topouzi, H. et al., Exp Dermatol., 26(6), 491-496, 2017; Higgins, C. A. et al., Proc Natl Acad Sci USA., 110(49), 19679-19688, 2013; Higgins, C. A. et al., Exp Dermatol., 19(6), 546-548, 2010], human hair follicle dermal papilla (HDP) cells were incubated in a general 2D monolayer culture manner and in a 3D spheroid culture manner as in the actual human follicle structure.
# First, for 2D monolayer culture, human hair follicle dermal papilla cells were cultured in a mesenchymal stem cell medium (MSCM) (Innoprot, Bizakaia, Spain) supplemented with 5% fetal bovine serum (FBS, Thermo Fisher Scientific, Inc., Waltham, MA, USA) in an incubator maintaining the condition of 37° C. and 5% CO2. […]
# First, the human hair follicle dermal papilla cells cultured in a 2D or 3D manner in Experimental Example 1 were seeded at a density of 1×10^4 cells/well into 96-well plates (96-well round-bottom ultra-low attachment microplates) and incubated at 37° C. for 24 hours in a 5% CO2 atmosphere. […] Then, 10 μl of the WST-1 solution was added to the culture and incubated for 30 min before reading absorbance at 450 nm on an iMark microplate reader (Bio-Rad Laboratories, Hercules, CA, USA). […]
# [2] = test system: human hair follicle dermal papilla cells; experiment: Formation and size of 3D spheroids (phase-contrast microscope); assay type: cell-based; details: 3D culture, 48 hours
# Experimental: (§1) Next, for 3D spheroid culture, human hair follicle dermal papilla cells were cultured in a plate (round-bottom ultra-low attachment microplate, Corning, NY, USA) containing the stem cell medium supplemented with 5% fetal bovine serum at 37° C. under a 5% CO2 atmosphere.
# Referring to the document [Higgins, C. A. et al., Exp Dermatol., 19(6), 546-548, 2010; Higgins, C. A. et al., Proc Natl Acad Sci USA., 110(49), 19679-19688, 2013; Kang, B. M. et al., J Invest Dermatol., 132(1), 237-239, 2012], a 3D spheroid culture of human hair follicle dermal papilla cells is reported to induce better formation and growth of hair follicles, compared to a 2D culture of human hair follicle dermal papilla cells. In addition, the document [Whiting, D. A., J Am Acad Dermatol., 45(3 Suppl), S81-S86, 2001; de Lacharriere, O. et al., Arch Dermatol., 137(5), 641-646, 2001; Jahoda, C. A., Exp Dermatol., 7(5), 235-248, 1998] reports that a decrease in the size of dermal papilla may cause follicle miniaturization in patients with hair loss. The Examples of the present disclosure were examined for effects of preventing hair loss and promoting hair growth by monitoring the formation and size of 3D spheroids after application to the 3D spheroid culture of Experimental Example 1.
# First, the formation and size change of 3D spheroids of human hair follicle dermal papilla cells were observed. In this regard, the 3D spheroid culture of cells in Experimental Example 1 was seeded at a density of 5×10^4 cells/well into 96-well plates (96-well round-bottom ultra-low attachment microplates) and incubated for 48 hours with predetermined concentrations of Examples 1 and 2 and Comparative Example 1 (ginsenoside Rg2). Thereafter, the human dermal papilla cells were observed under a phase-contrast microscope to see whether the cells formed 3D spheroids and to measure sizes of the spheroids.
# TCF/LEF = TCF/LEF luciferase reporter assay (TOPFlash/FOPFlash), Wnt/β-catenin signaling; assay type: cell-based; details: HEK293 cells, 20 μg/ml, 24 hours, vs non-treated group (control)
# Experimental: HEK293 cells were cultured in DMEM (Dulbecco's Modified Eagle's Medium, Thermo Fisher Scientific, Inc.) supplemented with 10% fetal bovine serum, penicillin (50 U/ml), and streptomycin (50 U/ml) under the condition of 37° C. and 5% CO2.
# Whether the Wnt/β-catenin signaling is activated or not was determined using a TCF/LEF luciferase reporter plasmid (TOPFlash, Merck-Millipore, Darmstadt, Germany) designed to specifically react with the transcription factor TCF/LEF activated by β-catenin, and a reporter plasmid having a mutation caused in the promoter thereof (FOPFlash, Merck-Millipore, Darmstadt, Germany).
# First, the TCF/LEF luciferase reporter plasmid (TOPFlash (TCF/LEF-wt) or FOPFlash (TCF/LEF-mut)) and a β-galactosidase plasmid were transfected into the HEK293 cells cultured in Experimental Example 1 with the aid of Lipofectamine 3000 (Invitrogen, Thermo Fisher Scientific, Inc.). After being incubated with 20 μg/ml of Example 1 for 24 hours, the transfected cells were lysed with a passive lysis buffer (Promega, Madison, WI, USA). The cell lysate thus formed was added with D-luciferin and measured for luciferase activity by Glomax 96 Microplate Luminometer (Turner Biosystem, Sunnyvale, CA, USA). β-Galactosidase activity was measured with the aid of Luminescent β-galactosidase Detection Kit II (Clontech Laboratories Inc., USA). […]
# LEF1 = experiment: Real-time PCR mRNA expression, Wnt/β-catenin signaling; assay type: cell-based, human; details: 3D spheroid culture, 20 μg/ml, 48 hours, relative to β-actin, vs non-treated group (control)
# Experimental: as §1
# (§2) Next, in order to confirm the luciferase activity results, mRNA analysis was performed on β-catenin, WNT5A, and LEF1, which are involved in the Wnt/β-catenin signaling. First, a 3D spheroid culture of human hair follicle dermal papilla cells was treated with Example 1 (20 μg/ml) for 48 hours, followed by RNA extraction with a TRIzol solution (Invitrogen, Thermo Fisher Scientific). From 2 μg of the RNA extract, cDNA was synthesized in the presence of M-MLV reverse transcriptase. The synthesized cDNA was mixed with HOT FIREPol EvaGreen qPCR Mix Plus solution (Solis BioDyne, Tartu, Estonia) and each of primer sets for the Wnt/β-catenin target genes β-catenin, WNT5A, and LEF1 and subjected to Step OnePlus Real-Time PCR (Applied Biosystems; Thermo Fisher Scientific). Relative to the expression of β-actin housekeeping gene, an expression level of each gene was derived. Analysis results of mRNA expressions are depicted in FIGS. 5B to 5D.
# WNT5A = experiment: as above; assay type: cell-based, human; details: 3D spheroid culture, 20 μg/ml, 48 hours, relative to β-actin, vs non-treated group (control)
# Experimental: as §1, §2
# β-catenin = experiment: as above; assay type: cell-based, human; details: 3D spheroid culture, 20 μg/ml, 48 hours, relative to β-actin, vs non-treated group (control)
# Experimental: as §1, §2
# ALPL = experiment: Real-time PCR mRNA expression, dermal papilla signature gene; assay type: cell-based, human; details: 3D spheroid culture, vs non-treated control
# Experimental: as §1, §2
# (§3) After being applied to the 3D spheroid culture of human hair follicle dermal papilla cells in Experimental Example 1, the Examples of the present disclosure were examined for the effect of preventing hair loss and promoting hair growth by monitoring mRNA expression levels of ALPL, VCAN, BMP2, and FGF7.
# (§4) The mRNA expression analysis of ALPL, VCAN, BMP2, and FGF7 was carried out in the same manner as for β-catenin, WNT5A, and LEF1 in Experimental Example 3-2, with the exception of using primer sets for ALPL, VCAN, FGF7, and BMP2 instead of those for β-catenin, WNT5A, and LEF1. The mRNA expression analysis data are depicted in FIGS. 6 and 7.
# BMP2 = experiment: as above; assay type: cell-based, human; details: 3D spheroid culture, vs non-treated control
# Experimental: as §1, §2, §3, §4
# FGF7 = experiment: as above; assay type: cell-based, human; details: 3D spheroid culture, vs non-treated control
# Experimental: as §1, §2, §3, §4
# VCAN = experiment: as above; assay type: cell-based, human; details: 3D spheroid culture, vs non-treated control
# Experimental: as §1, §2, §3, §4
smiles,measurement,setting,value
"CC(C)=CC/C=C(/C)[C@H]1CC[C@]2(C)[C@@H]1[C@H](O)C[C@@H]1[C@@]3(C)CC[C@H](O)C(C)(C)[C@@H]3[C@@H](O[C@@H]3O[C@H](CO)[C@@H](O)[C@H](O)[C@H]3O[C@@H]3O[C@@H](C)[C@H](O)[C@@H](O)[C@H]3O)C[C@]12C [Example 1, ginsenoside Rg4]",cell viability,[1]; 2D (monolayer) cultured cells,the same cell viability
same,cell viability,[1]; 3D (spheroid) cultured cells,the same cell viability
same,"number of 3D spheroids, increase compared to ginsenoside Rg2 of Comparative Example 1",[2]; FIG. 3C,two to three folds
same,"size of 3D spheroids, increase compared to ginsenoside Rg2 of Comparative Example 1",[2]; FIG. 3C,two to three folds
same,number of 3D spheroids,[2]; vs non-treated group,increase the number and size of 3D spheroids in a concentration-dependent manner
same,size of 3D spheroids,[2]; vs non-treated group,increase the number and size of 3D spheroids in a concentration-dependent manner
same,activation of TCF/LEF (luciferase activity),TCF/LEF,two folds or more
same,mRNA expression level of LEF1,LEF1,two folds or more
same,mRNA expression level of WNT5A,WNT5A,two folds or more
same,mRNA expression level of β-catenin,β-catenin,two folds or more
same,mRNA expression level of ALPL,ALPL,increased
same,mRNA expression level of BMP2,BMP2,increased
same,mRNA expression level of FGF7,FGF7,increased
same,mRNA expression level of VCAN,VCAN,increased
